In patent publication US12715851B2, “4′-substituted analogues of fisetin and their use in the treatment of cancer” (Stellenbosch University, priority 2020, dated 2026):

Tests used:
[1] = Acute toxicity, fed orally for two weeks; format: in vivo; conditions: Fisetin 50 mg/kg, 3c 25 and 50 mg/kg body weight
Experimental: Fisetin analogue 3c was used to assess the potential toxicity of these analogues in a pre-clinical model. To test the acute toxicity, Fisetin (50 mg/kg body weight), analogue 3c (25 mg/kg and 50 mg/kg body weight), and vehicle control (5% DMSO, 45% PEG-300 and 50% saline) was fed orally for two weeks. Abnormal clinical signs such as decreased motor activity, sensory reflection, body weight, food intake, and water intake were monitored during the treatment period. An increase in body weight was observed among all groups throughout the treatment period (FIG. 7A). […] This variation could be due to consistent frequency of dosage.

[2] = test system: lipid peroxidation (MDA formation); experiment: Hepatotoxicity: lipid peroxidation assay on microsomal liver fraction (TBARS); format: in vivo, swiss albino mice; conditions: microsomal liver fraction of treated mice
Experimental: (§1) Hepatotoxicity is considered to be one of the major challenges for drug development schemes. The liver is the primary organ for the metabolism or biotransformation of a given drug. To assess the hepatotoxicity of these compounds, the effects of Fisetin and analogue 3c on various hepatic enzymes was assessed.
(§2) A lipid peroxidation assay was performed on microsomal liver fraction and determined in terms of TBARS formation. […] The modulatory effects of Fisetin and analogue 3c were determined on the specific activities of cytochrome b5 reductase (Cytb5R) and cytochrome P450 reductase (CytP450R), phase I enzyme of xenobiotic metabolism. Fisetin and analogue 3c caused reduction in the specific activity of cytochrome b5 reductase. Fisetin decreased Cytb5R specific activity by 66% whereas analogue 3c (50 mg/kg) caused a 36% reduction in specific activity (FIG. 7F). An increase in specific activity of CytP450R by Fisetin and analogue 3c was observed. Fisetin and analogue 3c (50 mg/kg) increased the specific activity by 15% and 13%, respectively (FIG. 7G). Next, the specific activities of phase II enzymes, glutathione S-transferase (GST) and reduced glutathione (GSH) were measured. […] Fisetin and analogue 3c (50 mg/kg) caused a decrease in specific activity of GSH by 34% and 7%, respectively (FIG. 7I). […] These analogues are therefore likely to be effective and safe phytochemicals.

SOD = experiment: Hepatotoxicity: specific activity of SOD; format: in vivo, swiss albino mice; conditions: liver of treated mice
Experimental: as §1, §2

[3] = test system: cytochrome b5 reductase (Cytb5R); experiment: Hepatotoxicity: specific activity of cytochrome b5 reductase; format: in vivo, swiss albino mice; conditions: 50 mg/kg orally, two weeks
Experimental: as §1, §2

[4] = test system: cytochrome P450 reductase (CytP450R); experiment: Hepatotoxicity: specific activity of cytochrome P450 reductase; format: in vivo, swiss albino mice; conditions: 50 mg/kg orally, two weeks
Experimental: as §1, §2

[5] = test system: glutathione S-transferase (GST); experiment: Hepatotoxicity: specific activity of glutathione S-transferase; format: in vivo, swiss albino mice; conditions: liver of treated mice
Experimental: as §1, §2

[6] = test system: reduced glutathione (GSH); experiment: Hepatotoxicity: reduced glutathione; format: in vivo, swiss albino mice; conditions: 50 mg/kg orally, two weeks
Experimental: as §1, §2

[7] = test system: B(a)P-induced lung carcinogenesis; experiment: B(a)P-induced lung carcinogenesis, Initiation and Promotion Protocols; format: in vivo, Swiss albino mice
Description: To assess whether Fisetin and its 4-bromo-Fisetin analogue (Fisetin analogue 3c) have anticarcinogenesis activity and if any toxicity in terms of water and food consumption, and body weight, Benzo[a]pyrene [B(a)P] induced lung carcinogenesis in Swiss albino mice were employed in the study. Along with the antitumor activity of the agents, the body weight, food and water intake in different treatment groups were monitored on regular intervals and analysed.
There were six different treatment groups in the study including, (1) control, (2) B(a)P, (3) Fisetin+B(a)P, (4) Fisetin analogue 3c+B(a)P, (5) B(a)P+Fisetin and (6) B(a)P+Fisetin analogue 3c.
Groups 3 and 4 represent the Initiation Protocol (agents treatment started 1 week before carcinogen treatment and continued 1 week after the last dose of the carcinogen). Groups 5 and 6 represent the Promotion Protocol (agents treatment started after 3 weeks of the carcinogen treatment). The B(a)P was given orally twice a week for 4 weeks at 50 mg/kg body weight dose, whereas Fisetin and Fisetin analogue (3c) were administered orally at 25 mg/kg body weight thrice weekly (see FIG. 9).

[8] = cited from earlier work
[9] = test system: a range of cancer cell lines; conditions: reported in the literature; cited from earlier work
[10] = test system: 22rv1 prostate carcinoma cells; conditions: retained on methylation of the 3-hydroxy group; cited from earlier work

O=c1c(O)c(-c2ccc(O)c(O)c2)oc2cc(O)ccc12 [Fisetin]
toxicity in mice, in words [1]: did not cause toxicity | MDA formation (TBARS) [2]: No significant change | specific activity of SOD (SOD): moderately induced | reduction in specific activity of cytochrome b5 reductase [3]: 66% | increase in specific activity of CytP450R [4]: 15% | specific activities of GST compared to the control group [5]: did not cause significant change | decrease in specific activity of GSH [6]: 34% | systemic toxicity during long-term application ([7]; 25 mg/kg orally thrice weekly): did not show any systemic toxicity | tumorigenic features in lung histology (nucleus size, cytoplasmic content, alveoli) ([7]; 25 mg/kg orally thrice weekly): reversal of the tumorigenic features | tumor incidence, histopathology of H&E stained serial sections ([7]; compared to the carcinogen treated group): less | area or size of tumor lesions, in words ([7]; tumor initiation phase / initiation protocol): not effective as compared to the analogue | tumor lesions per mouse and total number of lesions per group, in words ([7]; versus B(a)P group): strongly reduced | pKa of the 4′-hydroxyl group [8]: ~ 9.4 | pKa of the 7-hydroxyl group ([8]; most acidic position): ~ 7.3

O=C1C[C@@H](c2ccc(O)cc2)Oc2cc(O)cc(O)c21 [navingenin]
activity against cancer cell lines compared to apigenin [9]: inactive

COc1cc(-c2oc3ccccc3c(=O)c2O)cc(OC)c1OC [TMFol]
activity against 22rv1 prostate carcinoma cells [10]: low micromolar activity
